In patent US8440632B2, “Protopanaxadiol-type ginsenoside compositions and uses thereof” (Raptor Therapeutics Inc., priority 2008, dated 2013):

Experiments:
[1] = target: T1, aldehyde dehydrogenase (ALDH) (Saccharomyces cerevisiae, UniProt P46367); assay: Aldehyde dehydrogenase (ALDH) activity assay, conversion of acetaldehyde into acetic acid; format: biochemical; details: 5, 50 or 500 μg/mL, relative to ALDH activity in the absence of ginsenoside (FIG. 3)
T1 construct: purchased Sigma-Aldrich A 6338
T1 sequence (P46367 25-519): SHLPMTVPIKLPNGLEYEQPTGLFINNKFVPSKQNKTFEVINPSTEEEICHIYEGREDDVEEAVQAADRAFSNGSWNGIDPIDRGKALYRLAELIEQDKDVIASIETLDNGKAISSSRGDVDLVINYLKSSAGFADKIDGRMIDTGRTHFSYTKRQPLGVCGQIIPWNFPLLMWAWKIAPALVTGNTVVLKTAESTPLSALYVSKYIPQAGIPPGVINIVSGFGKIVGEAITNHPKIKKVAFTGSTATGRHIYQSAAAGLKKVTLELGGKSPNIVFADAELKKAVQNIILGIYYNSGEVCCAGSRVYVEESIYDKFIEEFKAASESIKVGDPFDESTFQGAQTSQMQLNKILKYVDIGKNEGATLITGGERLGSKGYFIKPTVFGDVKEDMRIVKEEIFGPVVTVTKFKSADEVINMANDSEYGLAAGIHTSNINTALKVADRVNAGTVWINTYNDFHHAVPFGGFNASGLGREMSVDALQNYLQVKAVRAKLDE
Description: Stock solutions of ginsenosides Rb1, Rb2, Rc, Rd, Re and Rg1 in DMSO as described above, were prepared. ALDH was obtained from Sigma-Aldrich (product no. A 6338). Enzyme activity assays were performed in vitro according to instructions supplied by the vendor as modified by the addition of test substances, which is based on assay described in Bostian et al., Biochemical Journal 1978, 173, 773-786, the contents of which are incorporated by reference herein in their entirety. This assay measures the conversion of acetaldehyde into acetic acid via […] by ALDH catalysis.

[2] = tested on: alcohol dehydrogenase (ADH); assay: Alcohol dehydrogenase (ADH) activity, colorimetric assay; format: biochemical; details: 5, 50 or 500 μg/mL, relative to ADH activity in the absence of ginsenoside (FIG. 1)
Description: Ginsenosides Rb1, Rb2, Rc, Rd, Re and Rg1 were obtained from ChromaDex Inc., Irvine, Calif., USA. The ginsenosides were dissolved in DMSO to prepare a stock solution. Prior to performing an activity assay, portions of a ginsenosides stock solution were diluted in aqueous reaction buffer solution and from which samples were taken and assayed for activity.
ADH activity was measured in a colorimetric assay as described in Gibla and Gonzalex-Durante, J. Biochem. Biophys. Methods 1993, 26, 87-93, the contents of which are incorporated by reference herein in its entirety.

Structure (SMILES) | effect on ALDH activity [1] | effect on ADH activity [2]
CC(C)=CCC[C@](C)(O[C@@H]1O[C@H](CO)[C@@H](O)[C@H](O)[C@H]1O)[C@H]1CC[C@]2(C)[C@@H]1[C@H](O)C[C@@H]1[C@@]3(C)CC[C@H](O)C(C)(C)[C@@H]3[C@@H](O[C@@H]3O[C@H](CO)[C@@H](O)[C@H](O)[C@H]3O[C@@H]3O[C@@H](C)[C@H](O)[C@@H](O)[C@H]3O)C[C@]12C [ginsenoside Re, reference compound] | did not have a significant effect on ALDH activity | did not have a significant effect on ADH activity
CC(C)=CCC[C@](C)(O[C@@H]1O[C@H](CO)[C@@H](O)[C@H](O)[C@H]1O)[C@H]1CC[C@]2(C)[C@@H]1[C@H](O)C[C@@H]1[C@@]3(C)CC[C@H](O)C(C)(C)[C@@H]3[C@@H](O[C@@H]3O[C@H](CO)[C@@H](O)[C@H](O)[C@H]3O)C[C@]12C [ginsenoside Rg1, reference compound] | did not have a significant effect on ALDH activity | did not have a significant effect on ADH activity
CC(C)=CCC[C@](C)(O[C@@H]1O[C@H](CO[C@@H]2O[C@@H](CO)[C@H](O)[C@H]2O)[C@@H](O)[C@H](O)[C@H]1O)[C@H]1CC[C@]2(C)[C@@H]1[C@H](O)C[C@@H]1[C@@]3(C)CC[C@H](O[C@@H]4O[C@H](CO)[C@@H](O)[C@H](O)[C@H]4O[C@@H]4O[C@H](CO)[C@@H](O)[C@H](O)[C@H]4O)C(C)(C)[C@@H]3CC[C@]12C [ginsenoside Rc] | increased ALDH activity | reduced ADH activity
CC(C)=CCC[C@](C)(O[C@@H]1O[C@H](CO)[C@@H](O)[C@H](O)[C@H]1O)[C@H]1CC[C@]2(C)[C@@H]1[C@H](O)C[C@@H]1[C@@]3(C)CC[C@H](O[C@@H]4O[C@H](CO)[C@@H](O)[C@H](O)[C@H]4O[C@@H]4O[C@H](CO)[C@@H](O)[C@H](O)[C@H]4O)C(C)(C)[C@@H]3CC[C@]12C [ginsenoside Rd] | increased ALDH activity | reduced ADH activity
CC(C)=CCC[C@](C)(O[C@@H]1O[C@H](CO[C@@H]2OC[C@H](O)[C@H](O)[C@H]2O)[C@@H](O)[C@H](O)[C@H]1O)[C@H]1CC[C@]2(C)[C@@H]1[C@H](O)C[C@@H]1[C@@]3(C)CC[C@H](O[C@@H]4O[C@H](CO)[C@@H](O)[C@H](O)[C@H]4O[C@@H]4O[C@H](CO)[C@@H](O)[C@H](O)[C@H]4O)C(C)(C)[C@@H]3CC[C@]12C [ginsenoside Rb2] | increased ALDH activity | reduced ADH activity
CC(C)=CCC[C@](C)(O[C@@H]1O[C@H](CO[C@@H]2O[C@H](CO)[C@@H](O)[C@H](O)[C@H]2O)[C@@H](O)[C@H](O)[C@H]1O)[C@H]1CC[C@]2(C)[C@@H]1[C@H](O)C[C@@H]1[C@@]3(C)CC[C@H](O[C@@H]4O[C@H](CO)[C@@H](O)[C@H](O)[C@H]4O[C@@H]4O[C@H](CO)[C@@H](O)[C@H](O)[C@H]4O)C(C)(C)[C@@H]3CC[C@]12C [ginsenoside Rb1] | increased ALDH activity | reduced ADH activity
